Measured values published in patent US20240358719A1, “Formulations for Prolonging Gestation and for Complications of Menstruation or Gestation” (The Board of Trustees of the Leland Stanford Junior …, priority 2021, published 2024).
“Also recorded” adds a separate entry of the source. Where a name gives a salt, the structure may show the parent alone.

Experiments:
pregnant CD1 mice = assay: mouse model of preterm birth (CD1, LPS 1 mg/kg); format: in vivo; details: LPS 1 mg/kg D15, subcutaneous; for pups birthed from treated preterm model females: 4 doses; for gestation after LPS: 4 doses at 30 mg/kg (5α-DHT 3 mg/kg)
Method: Provided in FIGS. 9 and 9B are an experimental schematic and results of compound treatment in mouse models of preterm birth. Pregnant CD1 mice were intraperitoneally administered 1 mg/kg LPS (Escherichia coli 0127: B8, chromatographically pure, Sigma-Aldrich) or PBS (as control) on D15. Mice were then treated with either subcutaneous injections of vehicle (DMSO in pharmaceutical sesame oil), pregnenolone (Preg) (4 doses at 30 mg/kg), pregnenolone sulfate (PregS) (4 doses at 30 mg/kg), 7-methylguanine (4 doses at 30 mg/kg), or 5α-dihydrotestosterone (5α-DHT) (4 doses at 3 mg/kg). Compound groups received the compounds beginning 6 hours after LPS administration, then 6, 12, and 12 hours apart.

[1] = tested on: uterine muscle strips from pregnant WT mice stimulated with oxytocin; assay: myography of mouse uterine muscle strips, oxytocin dose response; details: D18 strips
Method: (§1) Uterine muscle strips were extracted from pregnant mice and were assessed for contractibility via myography. Timed-pregnant wild-type C57/B6 mice were euthanized before making a vertical midline abdominal incision and removing each of the two uterine horns. Uterine horns were subsequently cut into 3-mm×7-mm segments and placed in a modified Krebs buffer (118 mM NaCl, […], 1.2 mM MgSO4, 1.2 mM KH2PO4, 2.5 mM CaCl2), 25 mM NaHCO3, and 11 mM glucose, pH 7.4). Muscle segments were vertically suspended on custom-made stainless steel hooks inside an organ bath filled with modified Krebs buffer, maintained at 37° C., and aerated with gas containing 95% O2 and 5% CO2. The strips were allowed to equilibrate at 1.5 g of tension for 45 min.
For the oxytocin dose-response experiments, the strips were then stimulated with oxytocin at concentrations ranging from 1 to 1000 nM, and the pattern of contraction in response to each dose was recorded for 9 min. The muscle strips were washed with Krebs solution twice and allowed to equilibrate for 3 min before the next stimulation. In separate experiments, strips were treated with the compounds before assessing the dose response to oxytocin. Contraction tracings were recorded using PowerLab and LabChart (ADInstruments).
Provided in FIGS. 5B and 5C are results of a myography experiment measuring spontaneous contractions induced by oxytocin. […]

[2] = tested on: human uterine smooth muscle cells; assay: collagen gel contraction assay with human uterine smooth muscle cells; format: cell-based; details: compound at 10 μM; oxytocin 100 nM, 18 hours
Method: The abilities of various hormonal steroids to inhibit human uterine smooth muscle cell contraction were assessed utilizing a collagen gel contraction assay. Collagen (150 μl) was aliquoted per well of a 48-well plate. After 1 hour of polymerization, 80,000 human uterine smooth muscle cells (SMCs), were added to each well in 300 μl of SmBM smooth muscle basic medium (Lonza) with vehicle (DMSO) or compounds (2.5 µM of DHEA-S, 10 µM of THDOC, 10 µM of estriol-16-glucuronide, 10 µM of androstane-3,17-diol, or 2 mM of progesterone). Collagen gels were exposed to oxytocin (100 nM) to stimulate uterine SMC contraction or PBS as control. After incubating for 1 hour at 37° C. and 5% CO2, the sides of the collagen gels were detached from the wells with sterile 200-μl pipette tips. After 18 hours, cells in collagen-coated wells were fixed with 4% paraformaldehyde solution for 30 min, then rinsed, and stored in PBS. Experiments were done multiple times (n=7), with duplicates for each condition. Surface area of each gel circle was measured using ImageJ. The areas were then expressed as a percentage relative to the area of no cell (collagen alone) control (set at 100%).
Each of the compounds assessed provided some ability to mitigate collagen retraction. […]

[3] = tested on: uterine muscle strips from pregnant WT mice; assay: myography of mouse uterine muscle strips, spontaneous contraction
Method: as §1
Provided in FIG. 5A are results of a myography experiment measuring spontaneous contraction. Myography of uterine muscle strips from pregnant WT mice at D18 was performed while incubating the strips with oxytocin (OXY), Vehicle, 0.25 μM μM of DHEA-S, 1 μM of THDOC, 1 μM of estriol-16-glucuronide, or 1 μM of androstane-3,17-diol. The area under the curve was calculated for the final 180 s of each 9-min contraction tracing using GraphPad Prism (GraphPad Prism for Macintosh version 5.0; GraphPad Software). The area under the curve for each response was then normalized to the area under the curve of the baseline.
Provided in FIG. 5E are myography tracings recorded with various compound applications: 10 μM progesterone, 1 μM Androstane-3,17-diol, 0.5 μM Androstane-3,17-diol+5 μM progesterone, and 0.33 μM Androstane-3,17-diol+0.33 μM THDOC+3.3 μM progesterone. Left of the arrow is baseline contraction and to the right of the arrow indicates when the compounds were applied. […] Note that there was no obvious effect when treating the muscle with 1 μM progesterone (data not shown).

pregnant C57BL/6 mice [4] = assay: mouse model of moderate preterm birth (LPS 2 mg/kg); format: in vivo; details: LPS 2 mg/kg D15; for gestation after LPS: intraperitoneal every 8 hours, DHEA-S, THDOC 0.8 then 0.4 mg/mouse, androstane-3,17-diol 1.5 mg/mouse, combinations 0.75 mg/mouse each
Method: Provided in FIGS. 6A and 6B are an experimental schematic and results of compound treatment in mouse models of moderate preterm birth. Pregnant C57BL/6 mice were intraperitoneally administered 2 mg/kg LPS (Escherichia coli 0127:B8, chromatographically pure, Sigma-Aldrich) or PBS (as control) on D15. Mice were then treated with either intraperitoneal injections of vehicle (100 μl, 30% DMSO in pharmaceutical sesame oil), DHEA-S (first two doses at 0.8 mg/mouse, later doses at 0.4 mg/mouse, 100 μl), THDOC (first two doses at 0.8 mg/mouse, later doses at 0.4 mg/mouse, 100 μl), estriol-16-glucuronide (first two doses at 0.8 mg/mouse, later doses at 0.4 mg/mouse, 100 μl), androstane-3,17-diol (1.5 mg/mouse, 100 μl), Androstane-3,17-diol+progesterone (each at 0.75 mg/mouse, 100 μl), or DHEA-S+androstane-3,17-diol+progesterone (androstane-3,17-diol and progesterone each at 0.75 mg/mouse, DHEA-S at 0.27 mg/mouse for the first two doses and then 0.13 mg/mouse for the later does, 100 μl). Compound groups received the compounds via intraperitoneal injections every 8 hours, beginning 8 hours after LPS administration, up to 4 doses, and then after 12 hours before delivery.

pregnant C57BL/6 mice [5] = assay: mouse model of severe preterm birth (LPS 3 mg/kg); format: in vivo
Method: Provided in FIG. 7 is an experimental schematic of compound treatment in mouse models of severe preterm birth. In separate experiments, pregnant C57BL/6 mice were intraperitoneally administered 3 mg/kg LPS (Escherichia coli 0127: B8, chromatographically pure, Sigma-Aldrich) or PBS (as control) on D15. Treated mice were then treated with either intraperitoneal injections of vehicle (200 μl) or androstane-3,17-diol (1.5 mg/mouse, 200 μl) every 12 hours, up to 5 doses before delivery.
(§2) Provided in FIGS. 8A and 8B are an experimental schematic and results of tocolytic compound treatment in mouse models of severe preterm birth. In separate experiments, pregnant C57BL/6 mice were intraperitoneally administered 3 mg/kg LPS (Escherichia coli 0127: B8, chromatographically pure, Sigma-Aldrich) or PBS (as control) on D15. Treated mice were then treated with either intraperitoneal injections of vehicle or androstane-3,17-diol (1.5 mg/mouse). The androstane-3,17-diol group received androstane-3,17-diol via intraperitoneal injections every 24 hours, up to 3 days before delivery. One-third (33%) of LPS-induced preterm mice treated with androstane-3,17-diol reached full term.

pregnant C57BL/6 mice [6] = assay: gestation period in healthy control mice (no LPS); format: in vivo; details: 1.5 mg/mouse intraperitoneal every 24 hours
Method: as §2

Q: What does the source list for Cn1cnc2nc(N)[nH]c(=O)c21 [7-methylguanine]?
A: pups birthed from treated preterm model females (pregnant CD1 mice): Full-term live pups; gestation after LPS (pregnant CD1 mice): prolonged gestation in vivo

Q: Which results are given for C[C@]12CCC(=O)C[C@@H]1CC[C@@H]1[C@@H]2CC[C@]2(C)[C@@H](O)CC[C@@H]12 [5α-DHT, 5α-dihydrotestosterone]?
A: pups birthed from treated preterm model females (pregnant CD1 mice): Full-term live pups; gestation after LPS (pregnant CD1 mice): prolonged gestation in vivo

Q: For CC[C@H](C)[C@@H]1NC(=O)[C@H](Cc2ccc(O)cc2)NC(=O)[C@@H](N)CSSC[C@@H](C(=O)N2CCC[C@H]2C(=O)N[C@@H](CC(C)C)C(=O)NCC(N)=O)NC(=O)[C@H](CC(N)=O)NC(=O)[C@H](CCC(N)=O)NC1=O [Oxytocin, oxytocin, reference compound], which “effect of oxytocin on uterine contractility” value ([1]; 1 to 1000 nM oxytocin) is on record?
A: Its value is “dose-dependent increase in uterine contractility”.

Q: Which results are given for CC(=O)[C@H]1CC[C@H]2[C@@H]3CCC4=CC(=O)CC[C@]4(C)[C@H]3CC[C@]12C [progesterone, reference compound]?
A: ability to mitigate collagen retraction [2]: no effect; muscle contractility, myography tracing ([3]; 1 μM): no effects; muscle contractility, myography tracing ([3]; 10 μM): first enhanced and then gradually suppressed in peak height

Q: Which results are given for CC(=O)[C@H]1CC[C@H]2[C@@H]3CC=C4C[C@@H](OS(=O)(=O)O)CC[C@]4(C)[C@H]3CC[C@]12C [pregnenolone sulfate]?
A: pups birthed from treated preterm model females (pregnant CD1 mice): Full-term live pups; rank of gestation result among treatments (pregnant CD1 mice; 4 doses at 30 mg/kg): most significant results, matching the untreated control; gestation after LPS (pregnant CD1 mice): prolonged gestation in vivo

Q: How did the “gestation after LPS” value (pregnant C57BL/6 mice [4]) turn out when C[C@]12CC[C@@H](O)C[C@H]1CC[C@@H]1[C@@H]2CC[C@]2(C)[C@@H](C(=O)CO)CC[C@@H]12 [THDOC, tetrahydrodeoxycorticosterone] was run?
A: Its value is “prolonged gestation in vivo”.

Q: With C[C@]12CC[C@H](OS(=O)(=O)O)CC1=CC[C@@H]1[C@@H]2CC[C@]2(C)C(=O)CC[C@@H]12 [DHEA-S, dehydroisoandrosterone sulfate] as the compound, how does the “pups birthed from treated preterm model females” value (pregnant C57BL/6 mice [4]; intraperitoneal) read?
A: Its value is “Full-term live pups”.

Q: What about the “gestation after LPS” value (pregnant C57BL/6 mice [4]) of the same compound?
A: The value was “prolonged gestation in vivo”.

Q: Which results are given for C[C@]12CC[C@@H](O)C[C@@H]1CC[C@@H]1[C@@H]2CC[C@]2(C)[C@@H](O)CC[C@@H]12 (stereo in doubt) [androstane-3,17-diol]?
A: ability to mitigate collagen retraction [2]: best results; muscle contractility, myography tracing ([3]; 1 μM): rapid inhibition of the muscle contraction; suppression of uterine contractility (area under the curve normalized to baseline) ([3]; D18 strips, 0.25 μM DHEA-S, 1 μM THDOC, estriol-16-glucuronide or androstane-3,17-diol): most significant inhibition effect; uterine contractility with oxytocin stimulation (AUC, amplitude) ([1]; 1 μM compound, increasing doses of oxytocin): reduced; also recorded: inhibits uterine muscle contraction; pups birthed from treated preterm model females (pregnant C57BL/6 mice [4]; intraperitoneal): Full-term live pups; rank of gestation result among treatments (pregnant C57BL/6 mice [4]; intraperitoneal): most significant results; gestation after LPS (pregnant C57BL/6 mice [4]): prolonged gestation in vivo; condition of mom and pups at full-term (pregnant C57BL/6 mice [5]; 1.5 mg/mouse intraperitoneal every 12 hours): looked healthy; fraction of mice that reached full-term (pregnant C57BL/6 mice [5]; 1.5 mg/mouse intraperitoneal every 12 hours, up to 5 doses): ⅓; LPS-induced preterm mice that reached full term (pregnant C57BL/6 mice [5]; 1.5 mg/mouse intraperitoneal every 24 hours, up to 3 days): 33%; gestation period of healthy control mice (pregnant C57BL/6 mice [6]): increased gestation period beyond the typical date of delivery

Q: Which “gestation after LPS” value (pregnant CD1 mice) does the source give for CC(=O)[C@H]1CC[C@H]2[C@@H]3CC=C4C[C@@H](O)CC[C@]4(C)[C@H]3CC[C@]12C [pregnenolone] here?
A: The value was “prolonged gestation in vivo”.
